Source: patent US11178869B2, “Microbiocidal quinoline (thio)carboxamide derivatives” (priority 2017, dated 2021)
Read-outs that look alike come from different tables or passages of the source.

Legend:
[1] = test system: Fusarium culmorum; assay: microbe, parasite or virus in culture; assay type: cell-based; conditions: read-out: disease control
[2] = test system: Magnaporthe grisea (Pyricularia oryzae); assay: microbe, parasite or virus in culture; assay type: cell-based; conditions: read-out: control of Magnaporthe grisea
[3] = test system: Glomerella lagenarium (Colletotrichum lagenarium); assay: Glomerella lagenarium (Colletotrichum lagenarium) / liquid culture (anthracnose); assay type: cell-based; conditions: Colletotrichum orbiculare, read-out: disease control
[4] = test system: Sclerotinia sclerotiorum; assay: Sclerotinia sclerotiorum / liquid culture (cottony rot); conditions: read-out: control of Sclerotinia sclerotiorum
Experimental: Sclerotinia sclerotiorum/Liquid Culture (Cottony Rot)
Mycelia fragments of a newly grown liquid culture of the fungus are directly mixed into nutrient broth (Vogels broth). After placing a (DMSO) solution of test compound into a microtiter plate (96-well format) the nutrient broth containing the fungal material is added. The test plates are incubated at 24° C. and the inhibition of growth is determined photometrically 3-4 days after application.

[5] = test system: Monographella nivalis (Microdochium nivale); assay: Monographella nivalis (Microdochium nivale) / liquid culture (foot rot cereals); assay type: cell-based; conditions: read-out: disease control
[6] = test system: Botryotinia fuckeliana (Botrytis cinerea); assay: Botryotinia fuckeliana (Botrytis cinerea) / liquid culture (gray mould); assay type: cell-based; conditions: 72 h, read-out: disease control
[7] = test system: Fusarium culmorum; assay: whole plant or invertebrate; assay type: in vivo, Fusarium culmorum on wheat spikelets cv. Monsun; conditions: in Triticum aestivum, 144 h, read-out: control of Fusarium culmorum
[8] = test system: Gaeumannomyces graminis; assay: Gaeumannomyces graminis / liquid culture (take-all of cereals); assay type: cell-based; conditions: compared to untreated control, 4-5 days after application
[9] = 200 ppm, compared to untreated control, growth inhibition photometrically 3-4 days after application
[10] = 200 ppm, compared to untreated control, growth inhibition photometrically 4-5 days after application

SMILES	inhibition of growth at 200 ppm [1] [%]	inhibition of growth at 20 ppm [2] [%]	inhibition of growth at 200 ppm [3, 9] [%]	inhibition of growth at 20 ppm [4] [%]	inhibition of growth at 200 ppm [5, 10] [%]	inhibition of growth at 200 ppm [6, 9] [%]	pest or weed control at 200 ppm [7] [%]	inhibition of growth at 20 ppm [8] [%]	inhibition of growth at 200 ppm [3] [%]	inhibition of growth at 200 ppm [5] [%]	melting point [°C]	inhibition of growth at 200 ppm [6] [%]
CC(C)[C@@](C)(C#Cc1ccccc1)NC(=O)c1cnc2c(F)cccc2c1 (single isomer, unassigned) [Compound G-7]	≥ 80	≥ 80	≥ 80	≥ 80	≥ 80	≥ 80	≥ 80	–	–	–	–	–
CC(C)[C@](C)(C#Cc1ccccc1)NC(=O)c1cnc2c(F)cccc2c1 (single isomer, unassigned) [Compound G-8]	≥ 80	≥ 80	≥ 80	–	≥ 80	≥ 80	–	≥ 80	–	–	–	–
CC(CC#CC1CC1)(CC(F)(F)F)NC(=O)c1cnc2c(F)cccc2c1 (stereo not shown) [Compound E-1, N-[4-cyclopropyl-1-methyl-1-(2,2,2-trifluoroethyl)but-3-ynyl]-8-fluoro-quinoline-3-carboxamide]	≥ 80	–	–	–	–	–	–	–	≥ 80	≥ 80	110 to 112	≥ 80
CC(C)C(C#Cc1ccccc1)NC(=O)c1cnc2c(F)cccc2c1 (stereo not shown) [Compound F-3, 8-fluoro-N-(1-isopropyl-3-phenyl-prop-2-ynyl)quinoline-3-carboxamide]	≥ 80	≥ 80	≥ 80	–	≥ 80	≥ 80	≥ 80	–	–	–	156 to 158	–
O=C(NC(C#Cc1ccccc1)CCC(F)(F)F)c1cnc2c(F)cccc2c1 (stereo not shown) [Compound F-4, 8-fluoro-N-[4,4,4-trifluoro-1-(2-phenylethynyl)butyl]quinoline-3-carboxamide]	≥ 80	≥ 80	–	–	≥ 80	≥ 80	–	≥ 80	–	–	–	–
CCC(C#Cc1ccccc1)(CC)NC(=O)c1cnc2c(F)cccc2c1 [Compound F-6, N-(1,1-diethyl-3-phenyl-prop-2-ynyl)-8-fluoro-quinoline-3-carboxamide]	≥ 80	–	≥ 80	–	≥ 80	≥ 80	–	≥ 80	–	–	–	–
CC(C)C(C)(C#Cc1ccccc1F)NC(=O)c1cnc2c(F)cccc2c1 (stereo not shown) [Compound F-12, 8-fluoro-N-[3-(2-fluorophenyl)-1-isopropyl-1-methyl-prop-2-ynyl]quinoline-3-carboxamide]	≥ 80	≥ 80	≥ 80	≥ 80	≥ 80	≥ 80	≥ 80	≥ 80	–	–	–	–
Cc1ccccc1C#CC(C)(NC(=O)c1cnc2c(F)cccc2c1)C(C)C (stereo not shown) [Compound F-13, 8-fluoro-N-[1-isopropyl-1-methyl-3-(o-tolyl)prop-2-ynyl]quinoline-3-carboxamide]	≥ 80	≥ 80	≥ 80	–	≥ 80	≥ 80	–	≥ 80	–	–	138 to 141	–
CCC(C)(C#Cc1ccccc1C)NC(=O)c1cnc2c(F)cccc2c1 (stereo not shown) [Compound F-15, N-[1-ethyl-1-methyl-3-(o-tolyl)prop-2-ynyl]-8-fluoro-quinoline-3-carboxamide]	≥ 80	≥ 80	≥ 80	≥ 80	≥ 80	≥ 80	–	–	–	–	143 to 146	–
COc1ccc(Cl)cc1C#CC(C)(C)NC(=O)c1cnc2c(F)cccc2c1 [Compound F-23, N-[3-(5-chloro-2-methoxy-phenyl)-1,1-dimethyl-prop-2-ynyl]-8-fluoro-quinoline-3-carboxamide]	≥ 80	–	≥ 80	–	≥ 80	≥ 80	–	≥ 80	–	–	–	–
Cc1ccc(F)cc1C#CC(C)(C)NC(=O)c1cnc2c(F)cccc2c1 [Compound F-24, 8-fluoro-N-[3-(5-fluoro-2-methyl-phenyl)-1,1-dimethyl-prop-2-ynyl]quinoline-3-carboxamide]	≥ 80	–	≥ 80	–	≥ 80	≥ 80	≥ 80	≥ 80	–	–	–	–
CC(C)(C#Cc1ccc(F)cc1F)NC(=O)c1cnc2c(F)cccc2c1 [Compound F-25, N-[3-(2,4-difluorophenyl)-1,1-dimethyl-prop-2-ynyl]-8-fluoro-quinoline-3-carboxamide]	≥ 80	–	≥ 80	–	≥ 80	≥ 80	≥ 80	≥ 80	–	–	–	–
CC(C)C(C)(C#Cc1ccccc1)NC(=O)c1cnc2c(F)cccc2c1 (stereo not shown) [Compound F-46, 8-fluoro-N-(1-isopropyl-1-methyl-3-phenyl-prop-2-ynyl)quinoline-3-carboxamide]	≥ 80	≥ 80	≥ 80	–	≥ 80	≥ 80	≥ 80	≥ 80	–	–	118 to 122	–
Cc1ccccc1C#CC(C)(C)NC(=O)c1cnc2c(F)cccc2c1 [Compound F-47, N-[1,1-dimethyl-3-(o-tolyl)prop-2-ynyl]-8-fluoro-quinoline-3-carboxamide]	≥ 80	≥ 80	≥ 80	–	≥ 80	≥ 80	≥ 80	≥ 80	–	–	156 to 160	–
CC(C)(C#Cc1cccc(C(F)(F)F)c1)NC(=O)c1cnc2c(F)cccc2c1 [Compound F-48, N-[1,1-dimethyl-3-[3-(trifluoromethyl)phenyl]prop-2-ynyl]-8-fluoro-quinoline-3-carboxamide]	≥ 80	≥ 80	≥ 80	–	≥ 80	≥ 80	–	≥ 80	–	–	181 to 184	–
CC(C)(C#Cc1ccccc1)NC(=O)c1cnc2ccccc2c1 [Compound F-49, N-(1,1-dimethyl-3-phenyl-prop-2-ynyl)quinoline-3-carboxamide]	≥ 80	≥ 80	≥ 80	–	≥ 80	≥ 80	≥ 80	≥ 80	–	–	136 to 141	–
Cc1nc2c(F)cccc2cc1C(=O)NC(C)(C)C#Cc1ccccc1 [Compound F-50, N-(1,1-dimethyl-3-phenyl-prop-2-ynyl)-8-fluoro-2-methyl-quinoline-3-carboxamide]	≥ 80	≥ 80	≥ 80	≥ 80	–	≥ 80	–	–	–	–	118 to 123	–
Cc1c(C(=O)NC(C)(C)C#Cc2ccccc2)cnc2c(F)cccc12 [Compound F-51, N-(1,1-dimethyl-3-phenyl-prop-2-ynyl)-8-fluoro-4-methyl-quinoline-3-carboxamide]	≥ 80	≥ 80	≥ 80	≥ 80	≥ 80	≥ 80	–	≥ 80	–	–	–	–
C#CC(C)(C)NC(=O)c1cnc2c(F)cccc2c1 [Compound F-54, N-(1,1-dimethylprop-2-ynyl)-8-fluoro-quinoline-3-carboxamide]	≥ 80	–	–	–	≥ 80	–	–	–	–	–	148 to 150	–
CC(C)C[C@H](C#Cc1ccccc1)NC(=O)c1cnc2c(F)cccc2c1 [Compound G-3, 8-fluoro-N-[(1R)-3-methyl-1-(2-phenylethynyl)butyl]quinoline-3-carboxamide]	≥ 80	≥ 80	≥ 80	–	≥ 80	≥ 80	–	≥ 80	–	–	–	–
CC(C)C[C@](C)(C#Cc1ccccc1)NC(=O)c1cnc2c(F)cccc2c1 [Compound G-6, N-[(1R)-1,3-dimethyl-1-(2-phenylethynyl)butyl]-8-fluoro-quinoline-3-carboxamide]	≥ 80	≥ 80	–	–	≥ 80	≥ 80	–	≥ 80	–	–	128 to 130	–
